According to ChEMBL document CHEMBL5154820 (Eur J Med Chem, 2022):

Legend:
Tubulin = Tubulin (Sus scrofa, UniProt P02554+P02550); experiment: Inhibition of pig brain tubulin polymerization by spectrophotometeric analysis; set-up: species or system Sus scrofa domesticus
Tubulin (Sus scrofa) = Tubulin (Sus scrofa) (UniProt P02554+P02550); experiment: Inhibition of pig brain tubulin polymerization at 3 uM by spectrophotometer analysis relative to control; set-up: scale not given: the % may be the effect or the level left; settings: Sus scrofa domesticus
HeLa [1] = experiment: Induction of cell cycle arrest in human HeLa cells assessed as < 2N cells at 0.4 uM measured after 24 hrs by propidium iodide staining based flow cytometric analysis analysis ( Rvb = 7.07%); format: functional
HeLa [2] = experiment: Induction of cell cycle arrest in human HeLa cells assessed as 2N cells at 0.1 uM measured after 24 hrs by propidium iodide staining based flow cytometric analysis analysis ( Rvb = 47.4%); format: functional
HeLa [3] = experiment: Induction of cell cycle arrest in human HeLa cells assessed as 2N cells at 0.4 uM measured after 24 hrs by propidium iodide staining based flow cytometric analysis analysis ( Rvb = 47.4%); format: functional
HeLa [4] = experiment: Induction of cell cycle arrest in human HeLa cells assessed as S-phase at 0.2 uM measured after 24 hrs by propidium iodide staining based flow cytometric analysis analysis ( Rvb = 15.5%); format: functional
HeLa [5] = experiment: Induction of cell cycle arrest in human HeLa cells assessed as >4N cells at 0.2 uM measured after 24 hrs by propidium iodide staining based flow cytometric analysis analysis ( Rvb = 8.84%); format: functional
HeLa [6] = experiment: Induction of apoptosis in human HeLa cells assessed as early apoptotic cells at 0.1 uM measured after 24 hrs by Annexin V-FITC/7-AAD staining based flow cytometric analysis (reference value: 20.8%); format: functional
HeLa [7] = experiment: Induction of apoptosis in human HeLa cells assessed as late apoptotic cells at 0.2 uM measured after 24 hrs by Annexin V-FITC/7-AAD staining based flow cytometric analysis (reference value: 8.51%); format: functional
HeLa [8] = experiment: Inhibition of colony formation in human HeLa cells at 100 nM and treated for every 48 hrs with fresh medium measured after 14 days by crystal violet staining method; format: functional; set-up: scale not given: the % may be the effect or the level left; settings: time 14 day
[9] = Cmax in C57 nude mouse at 30 mg/kg, ip measured at 0.083 to 24 hrs by LC/MS/MS analysis; format: ADME, organism-based; set-up: dose 30 mg/kg, time 0.083-24 hrs, route ip; settings: in vivo
[10] = AUC(0 to infinity) in C57 nude mouse plasma at 30 mg/kg, ip measured at 0.083 to 24 hrs by LC/MS/MS analysis; format: ADME, organism-based; set-up: time lower 0.083 hrs, dose 30 mg/kg, time upper 24 hrs, route ip
[11] = Apparent volume of distribution during terminal phase in C57 nude mouse at 30 mg/kg, ip measured at 0.083 to 24 hrs by LC/MS/MS analysis; format: ADME, organism-based; settings: in vivo, time 0.083-24 hrs, read-out: Vz/F
[12] = Acute toxicity in ICR female mouse assessed as body weight gain at 100 to 1000 mg/kg, ip measured daily for 14 days; format: organism-based; settings: in vivo, 336 h, dose 100-1000 mg/kg, time 14 day
[13] = Acute toxicity in ICR mouse assessed as median lethal dose administered intraperitoneally upto 14 days; settings: in vivo, route ip, time < 14 day
HeLa [14] = experiment: Antitumor activity against human HeLa cells xenografted in BABL/c mouse assessed as tumor growth inhibition at 30 mg/kg, ip administered daily for 21 days followed by addition of 3 mg/kg DDP for every 2 days relative to control; format: functional; settings: 504 h, time 21 day, read-out: TGI
HeLa [15] = experiment: Antitumor activity against human HeLa cells xenografted in BABL/c mouse assessed assessed as reduction in tumor volume at 30 mg/kg, ip administered daily for 21 days and measured every 3 days ( Rvb = 2336 mm3); format: functional; settings: time 21 day
HeLa [16] = experiment: Antitumour activity against human HeLa cells xenografted in BABL/c mouse assessed as reduction in tumor weight at 30 mg/kg, ip administered daily for 21 days followed by addition of 3 mg/kg DDP for every 2 days ( Rvb = 3.36 g); format: functional; settings: time 21 day, 504 h
HeLa [17] = experiment: Antitumour activity against human HeLa cells xenografted in BABL/c mouse assessed as reduction in tumor weight at 60 mg/kg, ip administered daily for 21 days ( Rvb = 3.36 g); format: functional; settings: time 21 day
[18] = Nephrotoxicity in BABL/c mouse assessed as increased creatinine level at 30 mg/kg, ip administered daily for 21 days relative to vehicle; format: toxicity, organism-based; settings: in vivo, 504 h, time 21 day
[19] = Nephrotoxicity in BABL/c mouse assessed as increased uric acid level at 30 mg/kg, ip administered daily for 21 days followed by addition of 3 mg/kg DDP for every 2 days relative to vehicle; format: toxicity, organism-based; settings: in vivo, 504 h, time 21 day
[20] = Nephrotoxicity in BABL/c mouse assessed as increased uric acid level at 60 mg/kg, ip administered daily for 21 days relative to vehicle; format: toxicity, organism-based; settings: in vivo, 504 h, time 21 day
[21] = Nephrotoxicity in BABL/c mouse assessed as increased urea nitrogen level at 30 mg/kg, ip administered daily for 21 days relative to vehicle; format: toxicity, organism-based; settings: in vivo, 504 h, time 21 day
[22] = Nephrotoxicity in BABL/c mouse assessed as increased urea nitrogen level at 60 mg/kg, ip administered daily for 21 days relative to vehicle; format: toxicity, organism-based; settings: in vivo, 504 h, time 21 day
HeLa [23] = experiment: Potency index, ratio of cisplatin IC50 to test compound IC50 for cytotoxicity against human DDP resistant HeLa cells; format: functional
[24] = Retention time of the compound; format: physicochemical
HUVEC = experiment: Vascular disruptive activity against HUVEC-formed vascular tube assessed as damage of vascular tube on matrigel substratum at 0.2 uM measured after 2 hrs; format: functional, Homo sapiens
HeLa [25] = experiment: Induction of cell cycle arrest in human HeLa cells assessed as < 2N cells at 3 nM measured after 24 hrs by propidium iodide staining based flow cytometric analysis analysis ( Rvb = 9.32%); format: functional
HeLa [26] = experiment: Induction of cell cycle arrest in human HeLa cells assessed as S-phase at 6 nM measured after 24 hrs by propidium iodide staining based flow cytometric analysis analysis ( Rvb = 23.4%); format: functional
HeLa [27] = experiment: Induction of cell cycle arrest in human HeLa cells assessed as 4N cells at 1.5 nM measured after 24 hrs by propidium iodide staining based flow cytometric analysis analysis ( Rvb = 17.1%); format: functional
HeLa [28] = experiment: Induction of cell cycle arrest in human HeLa cells assessed as 4N cells at 6 nM measured after 24 hrs by propidium iodide staining based flow cytometric analysis analysis ( Rvb = 17.1%); format: functional
HeLa [29] = experiment: Induction of cell cycle arrest in human HeLa cells assessed as >4N cells at 1.5 nM measured after 24 hrs by propidium iodide staining based flow cytometric analysis analysis relative to control; format: functional
HeLa [30] = experiment: Induction of cell cycle arrest in human HeLa cells assessed as accumulation of cells at G2/M phase at 3 nM after 24 hrs by propidium iodide staining based flow cytometric analysis (reference value: 17.1%); format: functional
HeLa [31] = experiment: Induction of apoptosis in human HeLa cells assessed as viable cells at 3 nM measured after 24 hrs by Annexin V-FITC/7-AAD staining based flow cytometric analysis (reference value: 75.5%); format: functional; settings: read-out: Activity
HeLa [32] = experiment: Antimigratory activity against human HeLa cells at 1.5 nM measured after 24 hrs by scratch wound healing based fluorescence inverted microscopic analysis; format: functional
HeLa [33] = experiment: Antimigratory activity against human HeLa cells at 3 nM measured after 24 hrs by scratch wound healing based fluorescence inverted microscopic analysis; format: functional

Sequence of Tubulin (Sus scrofa) (P02550 whole entry, looked up): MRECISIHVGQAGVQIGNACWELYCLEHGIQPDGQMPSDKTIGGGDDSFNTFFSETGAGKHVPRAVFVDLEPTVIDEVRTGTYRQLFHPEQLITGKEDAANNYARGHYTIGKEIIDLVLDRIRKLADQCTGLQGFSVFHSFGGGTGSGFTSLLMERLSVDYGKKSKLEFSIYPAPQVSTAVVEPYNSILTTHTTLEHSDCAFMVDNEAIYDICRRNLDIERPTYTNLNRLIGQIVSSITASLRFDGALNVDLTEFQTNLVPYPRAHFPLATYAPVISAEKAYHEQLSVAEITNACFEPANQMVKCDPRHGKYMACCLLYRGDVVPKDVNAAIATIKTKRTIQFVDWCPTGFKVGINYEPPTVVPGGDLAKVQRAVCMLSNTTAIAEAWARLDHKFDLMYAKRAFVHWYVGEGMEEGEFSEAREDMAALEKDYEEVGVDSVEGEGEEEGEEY
Sequence of Tubulin (Sus scrofa) (P02554 whole entry, looked up): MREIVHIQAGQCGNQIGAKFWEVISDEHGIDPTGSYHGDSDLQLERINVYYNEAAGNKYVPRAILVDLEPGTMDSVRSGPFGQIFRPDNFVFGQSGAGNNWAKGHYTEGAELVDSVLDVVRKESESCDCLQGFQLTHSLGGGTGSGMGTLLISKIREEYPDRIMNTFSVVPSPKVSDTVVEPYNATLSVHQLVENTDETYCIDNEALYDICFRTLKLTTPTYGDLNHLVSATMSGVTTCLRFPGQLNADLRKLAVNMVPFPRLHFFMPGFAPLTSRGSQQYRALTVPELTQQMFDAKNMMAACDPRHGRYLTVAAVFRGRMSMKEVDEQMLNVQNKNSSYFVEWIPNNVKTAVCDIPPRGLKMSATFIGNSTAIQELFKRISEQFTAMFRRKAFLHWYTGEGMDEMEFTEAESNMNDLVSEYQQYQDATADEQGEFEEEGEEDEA

CCOc1ccc(-c2cncnc2-c2cc(OC)c(OC)c(OC)c2)cc1Cl
IC50 (Tubulin): 4.6 µM | Activity (Tubulin (Sus scrofa)): 39% | Activity (HeLa [1]): 0.26% | Activity (HeLa [2]): 22.7% | Activity (HeLa [3]): 7.03% | Activity (HeLa [4]): 16.6% | Activity (HeLa [5]): 17.4% | Activity (HeLa [6]): 35.9% | Activity (HeLa [7]): 6.7% | Activity (HeLa [8]): 100% | Cmax [9]: 6220 ng/mL | AUC(0-inf) [10]: 5940 ng·h/mL | Vd/F [11]: 11.3 L/kg | Activity [12]: 3.88 g | LD50 at 336 h [13]: 1000 mg/kg | inhibition in vivo at 30 mg/kg (HeLa [14]): 73% | Activity (HeLa [15]): 1578 mm3 | Activity (HeLa [16]): 2.18 g | Activity (HeLa [17]): 1.42 g | Activity [18]: 31% | Activity [19]: 16% | Activity [20]: 36% | Activity [21]: 1.3% | Activity [22]: 1.3% | Ratio IC50 (HeLa [23]): 2.7 | Retention_time [24]: 2.06 min

COc1ccc(/C=C\c2cc(OC)c(OC)c(OC)c2)cc1O [COMBRETASTATIN A4]
Activity (HUVEC): 100% | Activity (HeLa [25]): 7.77% | Activity (HeLa [26]): 15.9% | Activity (HeLa [27]): 22.5% | Activity (HeLa [28]): 35.3% | Activity (HeLa [29]): 17.9% | Activity (HeLa [30]): 28.2% | viability at 0.003 µM (HeLa [31]): 44.7% | Activity (HeLa [32]): 25% | Activity (HeLa [33]): 57%
